Among the data in patent US10544143B2, “4-azaindole compounds” (BRISTOL-MYERS SQUIBB COMPANY, priority 2017, dated 2020) are IC50 values, retold here.

The term IC50 denotes the midpoint of a concentration-inhibition curve.

Each structure is given as a SMILES string. Where two headings read alike, the source gives them in different places.

One test concerns the target human TLR7 (Homo sapiens (Human), UniProt Q9NYK1). Description: TLR7 inhibition reporter assay (HEK-Blue SEAP). It is filed as cell-based. The settings on record: HEK-Blue human TLR7 cells, gardiquimod 7.5 μM.
The target of the next test is human TLR8 (Homo sapiens (Human), UniProt Q9NR97). Description: TLR8 inhibition reporter assay (HEK-Blue SEAP).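 Note: SEAP driven by IFN-β minimal promoter carrying NF-κB and AP-1 sites, compounds dosed 0.05 nM to 50 µM for 22 h, inhibition scaled between agonist-plus-DMSO and reference-inhibitor wells.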 The settings on record: R848 15.9 μM.
human TLR8, sequence (Q9NR97 27-1041): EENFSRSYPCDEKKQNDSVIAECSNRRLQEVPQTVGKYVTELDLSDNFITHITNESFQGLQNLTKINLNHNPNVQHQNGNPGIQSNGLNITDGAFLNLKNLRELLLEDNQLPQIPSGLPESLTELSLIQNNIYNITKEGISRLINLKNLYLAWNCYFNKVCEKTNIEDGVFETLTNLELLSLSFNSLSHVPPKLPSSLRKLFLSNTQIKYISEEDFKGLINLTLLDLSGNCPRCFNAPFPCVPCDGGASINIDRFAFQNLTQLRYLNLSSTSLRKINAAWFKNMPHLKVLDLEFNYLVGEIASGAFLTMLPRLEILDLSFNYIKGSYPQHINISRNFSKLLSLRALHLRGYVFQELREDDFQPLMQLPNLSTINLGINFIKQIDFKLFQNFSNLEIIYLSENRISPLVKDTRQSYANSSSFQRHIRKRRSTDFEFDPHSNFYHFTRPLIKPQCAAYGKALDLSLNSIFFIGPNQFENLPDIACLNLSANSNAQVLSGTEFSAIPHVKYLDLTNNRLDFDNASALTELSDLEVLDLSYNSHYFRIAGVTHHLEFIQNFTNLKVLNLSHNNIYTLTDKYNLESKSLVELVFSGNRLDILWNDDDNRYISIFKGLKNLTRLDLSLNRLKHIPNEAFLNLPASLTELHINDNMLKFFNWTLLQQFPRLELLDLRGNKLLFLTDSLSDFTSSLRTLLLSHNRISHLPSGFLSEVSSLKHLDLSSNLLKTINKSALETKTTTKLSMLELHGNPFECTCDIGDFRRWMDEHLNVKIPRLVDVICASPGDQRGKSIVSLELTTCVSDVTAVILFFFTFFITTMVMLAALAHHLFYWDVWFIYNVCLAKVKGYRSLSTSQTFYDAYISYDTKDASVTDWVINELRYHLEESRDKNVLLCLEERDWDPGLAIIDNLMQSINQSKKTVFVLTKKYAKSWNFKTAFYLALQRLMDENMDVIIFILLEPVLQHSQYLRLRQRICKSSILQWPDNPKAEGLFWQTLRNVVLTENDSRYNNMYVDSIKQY
Another test concerns the target human TLR9 (Homo sapiens (Human), UniProt Q9NR96). Briefly: TLR9 inhibition reporter assay (HEK-Blue SEAP).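 Note: SEAP driven by an IFN-β minimal promoter with NF-κB and AP-1 sites, read after 22 h, compounds dosed 0.05 nM–50 µM, inhibition scaled between agonist plus DMSO and reference-inhibitor wells.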 The settings on record: ODN2006 5 nM.
Setting [1] is: read-out: TLR8 IC50, HEK-Blue human TLR8 cells.
[2] abbreviates: read-out: TLR9 IC50, HEK-Blue human TLR9 cells.

human TLR9, sequence (Q9NR96 26-1032): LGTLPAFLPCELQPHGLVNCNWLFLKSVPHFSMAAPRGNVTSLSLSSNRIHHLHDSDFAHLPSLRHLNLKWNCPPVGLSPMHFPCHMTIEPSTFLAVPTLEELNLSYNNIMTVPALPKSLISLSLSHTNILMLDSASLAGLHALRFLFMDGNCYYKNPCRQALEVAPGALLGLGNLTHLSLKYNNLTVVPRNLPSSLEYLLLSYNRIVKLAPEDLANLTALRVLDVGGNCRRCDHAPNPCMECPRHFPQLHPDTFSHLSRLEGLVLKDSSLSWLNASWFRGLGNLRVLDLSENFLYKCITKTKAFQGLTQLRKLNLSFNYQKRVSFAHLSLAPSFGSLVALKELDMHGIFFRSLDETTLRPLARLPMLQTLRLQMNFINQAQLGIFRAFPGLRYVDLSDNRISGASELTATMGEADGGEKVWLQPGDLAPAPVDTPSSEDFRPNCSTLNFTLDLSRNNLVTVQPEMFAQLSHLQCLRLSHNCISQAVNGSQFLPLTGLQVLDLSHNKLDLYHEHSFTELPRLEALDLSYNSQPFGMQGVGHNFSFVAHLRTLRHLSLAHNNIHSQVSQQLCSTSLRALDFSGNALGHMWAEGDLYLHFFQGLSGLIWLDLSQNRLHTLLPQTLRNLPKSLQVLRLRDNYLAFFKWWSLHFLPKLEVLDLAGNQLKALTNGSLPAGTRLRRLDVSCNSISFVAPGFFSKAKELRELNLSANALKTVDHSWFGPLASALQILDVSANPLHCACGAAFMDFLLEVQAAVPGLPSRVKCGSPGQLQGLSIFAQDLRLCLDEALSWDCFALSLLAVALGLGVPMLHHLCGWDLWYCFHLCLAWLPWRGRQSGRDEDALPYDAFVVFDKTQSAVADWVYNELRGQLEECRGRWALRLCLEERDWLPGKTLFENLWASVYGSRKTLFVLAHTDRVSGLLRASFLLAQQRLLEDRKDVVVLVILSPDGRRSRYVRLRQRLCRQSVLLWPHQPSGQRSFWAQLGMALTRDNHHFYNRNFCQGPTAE
human TLR7, sequence (Q9NYK1 27-1049): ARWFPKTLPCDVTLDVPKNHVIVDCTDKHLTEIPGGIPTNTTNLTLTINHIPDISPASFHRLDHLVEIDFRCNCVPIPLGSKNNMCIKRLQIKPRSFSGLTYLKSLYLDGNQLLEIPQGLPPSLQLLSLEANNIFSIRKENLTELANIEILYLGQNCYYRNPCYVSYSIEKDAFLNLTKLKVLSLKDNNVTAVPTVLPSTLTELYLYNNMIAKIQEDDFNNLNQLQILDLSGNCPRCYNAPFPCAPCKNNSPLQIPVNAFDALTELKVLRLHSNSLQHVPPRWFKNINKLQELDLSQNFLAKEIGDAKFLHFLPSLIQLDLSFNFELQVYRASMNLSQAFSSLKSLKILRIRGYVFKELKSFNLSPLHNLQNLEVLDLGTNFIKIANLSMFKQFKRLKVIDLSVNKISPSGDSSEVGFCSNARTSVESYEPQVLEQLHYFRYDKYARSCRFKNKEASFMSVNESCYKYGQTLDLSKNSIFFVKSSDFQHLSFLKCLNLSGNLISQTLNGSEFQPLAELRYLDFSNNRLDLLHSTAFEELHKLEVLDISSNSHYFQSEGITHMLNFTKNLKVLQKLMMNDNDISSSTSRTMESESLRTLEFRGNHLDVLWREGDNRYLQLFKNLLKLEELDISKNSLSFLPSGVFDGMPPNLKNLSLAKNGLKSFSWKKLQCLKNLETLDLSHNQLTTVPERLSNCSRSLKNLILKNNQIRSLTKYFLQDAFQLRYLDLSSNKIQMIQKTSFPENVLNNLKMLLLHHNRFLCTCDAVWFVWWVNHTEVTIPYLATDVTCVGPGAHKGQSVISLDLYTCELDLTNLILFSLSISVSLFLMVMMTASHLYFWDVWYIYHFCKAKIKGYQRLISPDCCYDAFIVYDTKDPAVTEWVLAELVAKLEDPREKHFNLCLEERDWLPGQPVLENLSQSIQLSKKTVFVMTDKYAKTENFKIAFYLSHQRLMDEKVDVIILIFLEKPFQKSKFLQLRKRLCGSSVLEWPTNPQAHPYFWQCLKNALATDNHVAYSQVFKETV

For `Cc1c(-c2[nH]c3ccc(N4CCN(C(=O)CN(C)C(C)(C)C)C[C@H]4C)nc3c2C(C)C)cn2ncnc2c1C` [Example 934], the IC50 worked out at 0.86 nM against human TLR7, 8.6 nM on human TLR8 (setting [1]) and 9750 nM at human TLR9 (setting [2]).
For the molecule `Cc1c(-c2[nH]c3ccc(N4C[C@H](C)N(C(=O)CN5CC6(COC6)C5)C[C@H]4C)nc3c2C(C)C)cn2ncnc2c1C` [Example 935], the IC50 against human TLR7 was determined as 0.48 nM; at human TLR8 (setting [1]), 2.9 nM; on human TLR9 (setting [2]), 5610 nM.
With `Cc1c(-c2[nH]c3ccc(N4C[C@H](C)N(C(=O)CN5CCCC5)C[C@H]4C)nc3c2C(C)C)cn2ncnc2c1C` [Example 936], the IC50 worked out at 0.56 nM against human TLR7, 3.5 nM on human TLR8 (setting [1]) and 4640 nM at human TLR9 (setting [2]).
The corresponding values for `CCN(C)CC(=O)N1C[C@@H](C)N(c2ccc3[nH]c(-c4cn5ncnc5c(C)c4C)c(C(C)C)c3n2)C[C@@H]1C` [Example 937] are 0.52 nM, 14 nM and 14200 nM.
The corresponding values for `Cc1c(-c2[nH]c3ccc(N4C[C@H](C)N(C(=O)CN(C)C(C)C)C[C@H]4C)nc3c2C(C)C)cn2ncnc2c1C` [Example 938] are 2.6 nM, 4.9 nM and 8560 nM.
As to `Cc1c(-c2[nH]c3ccc(N4C[C@H](C)N(C(=O)CN(C)C(C)(C)C)C[C@H]4C)nc3c2C(C)C)cn2ncnc2c1C` [Example 939], the IC50 is 1.5 nM at human TLR7, 9.8 nM at human TLR8 (setting [1]) and 11900 nM on human TLR9 (setting [2]).
The corresponding values for `Cc1c(-c2[nH]c3ccc(N4CCN(C(=O)CN5CC6(COC6)C5)[C@H](C)C4)nc3c2C(C)C)cn2ncnc2c1C` [Example 940] are 1.7 nM, 0.66 nM and 8340 nM.
The corresponding values for `Cc1c(-c2[nH]c3ccc(N4CCN(C(=O)CN5CCCC5)[C@H](C)C4)nc3c2C(C)C)cn2ncnc2c1C` [Example 941] are 0.66 nM, 0.66 nM and 7200 nM.
`CCN(C)CC(=O)N1CCN(c2ccc3[nH]c(-c4cn5ncnc5c(C)c4N)c(C(C)C)c3n2)C[C@H]1C` [Example 942]: the IC50 was 0.5 nM against human TLR7, 3.4 nM on human TLR8 (setting [1]) and 12000 nM on human TLR9 (setting [2]).
For `Cc1c(-c2[nH]c3ccc(N4CCN(C(=O)CN(C)C(C)C)[C@H](C)C4)nc3c2C(C)C)cn2ncnc2c1C` [Example 943], the IC50 at human TLR7 was determined as 1.1 nM; on human TLR8 (setting [1]), 1.1 nM; at human TLR9 (setting [2]), 10000 nM.
Turning to `Cc1c(-c2[nH]c3ccc(N4CCN(C(=O)CN(C)C(C)(C)C)[C@H](C)C4)nc3c2C(C)C)cn2ncnc2c1C` [Example 944], the IC50 was 3.1 nM against human TLR7, 4.9 nM on human TLR8 (setting [1]) and 17100 nM on human TLR9 (setting [2]).
The corresponding values for `Cc1c(-c2[nH]c3ccc(N4CCN(C(=O)CC(C)(C)N5CC6(COC6)C5)CC4)nc3c2C(C)C)cn2ncnc2c1C` [Example 945] are 4.8 nM, 0.94 nM and 7850 nM.
The corresponding values for `Cc1c(-c2[nH]c3ccc(N4CCN(C(=O)CN5CC(C)(O)C5)CC4)nc3c2C(C)C)cn2ncnc2c1C` [Example 946] are 1.4 nM, 1.8 nM and 8950 nM.
The corresponding values for `Cc1c(-c2[nH]c3ccc(N4CCN(C(=O)CN5CCC6(CCOC6)C5)CC4)nc3c2C(C)C)cn2ncnc2c1C` (stereo not drawn) [Example 947] are 1.9 nM, 0.66 nM and 8770 nM.
With `Cc1c(-c2[nH]c3ccc(N4CCN(C(=O)CN5CCC(C)(O)C5)CC4)nc3c2C(C)C)cn2ncnc2c1C` (stereo not drawn) [Example 948], the IC50 at human TLR7 amounted to 2.8 nM; at human TLR8 (setting [1]), 1.4 nM; on human TLR9 (setting [2]) it was 12800 nM.
The corresponding values for `Cc1c(-c2[nH]c3ccc(N4CCN(C(=O)CN(C)CC(C)(C)O)CC4)nc3c2C(C)C)cn2ncnc2c1C` [Example 949] are 2.6 nM, 1.6 nM and 31000 nM.
Take `Cc1c(-c2[nH]c3ccc(N4CCN(C(=O)CN5CCOCC5(C)C)CC4)nc3c2C(C)C)cn2ncnc2c1C` [Example 950]: the IC50 against human TLR7 was 7.2 nM; on human TLR8 (setting [1]) it was 4.9 nM; on human TLR9 (setting [2]) it was 36100 nM.
Take `Cc1c(-c2[nH]c3ccc(N4CCN(C(=O)CN5CC6(C5)CS(=O)(=O)C6)CC4)nc3c2C(C)C)cn2ncnc2c1C` [Example 951]: the IC50 against human TLR7 was 6.5 nM; on human TLR8 (setting [1]), 1.5 nM; on human TLR9 (setting [2]), over 50000 nM.
With `[2H]C([2H])([2H])NCC(=O)N1CCN(c2ccc3[nH]c(-c4cn5ncnc5c(C)c4C)c(C(C)C)c3n2)CC1` [Example 952], the IC50 against human TLR7 was 1.8 nM; at human TLR8 (TLR8 IC50, HEK-Blue human TLR8 cells), 0.7 nM; against human TLR9 (TLR9 IC50, HEK-Blue human TLR9 cells), 7860 nM.
`Cc1c(-c2[nH]c3ccc(N4CCN(C(=O)CN(CCO)C(C)(C)C)C[C@H]4C)nc3c2C(C)C)cn2ncnc2c1C` [Example 953]: the IC50 stood at 0.92 nM at human TLR7, 5.3 nM on human TLR8 (setting [1]) and 12000 nM at human TLR9 (setting [2]).
On to `Cc1c(-c2[nH]c3ccc(N4C[C@H](C)N(C(=O)CN(CCO)C(C)(C)C)C[C@H]4C)nc3c2C(C)C)cn2ncnc2c1C` [Example 954], for which the IC50 on human TLR7 turned out to be 1.9 nM; at human TLR8 (setting [1]) it was 36 nM; at human TLR9 (setting [2]), 20900 nM.
The corresponding values for `Cc1c(-c2[nH]c3ccc(N4CCN(C(=O)CN(CCO)C(C)(C)C)[C@H](C)C4)nc3c2C(C)C)cn2ncnc2c1C` [Example 955] are 0.76 nM, 2 nM and 20400 nM.
Turning to `Cc1c(-c2[nH]c3ccc(N4CCN(C(=O)CN5CC6(CCOC6)C5)CC4)nc3c2C(C)C)cn2ncnc2c1C` [Example 956], the IC50 on human TLR7 was found to be 1 nM; at human TLR8 (setting [1]), 1.9 nM; on human TLR9 (setting [2]), 9650 nM.
Consider `Cc1c(-c2[nH]c3ccc(N4CCN(C(=O)CN5CCC6(COC6)C5)CC4)nc3c2C(C)C)cn2ncnc2c1C` [Example 957], for which the IC50 on human TLR7 amounted to 0.92 nM; on human TLR8 (setting [1]), 2.9 nM; on human TLR9 (setting [2]), 24400 nM.
The corresponding values for `Cc1c(-c2[nH]c3ccc(N4C[C@@H](C)N(C(=O)CCN5CC6(CCO6)C5)C[C@@H]4C)nc3c2C(C)C)cn2ncnc2c1C` [Example 958] are 0.27 nM, 2.3 nM and 11200 nM.
Turning to `Cc1c(-c2[nH]c3ccc(N4C[C@@H](C)N(C(=O)CCN5CC6(C5)CS(=O)(=O)C6)C[C@@H]4C)nc3c2C(C)C)cn2ncnc2c1C` [Example 959], the half-maximal inhibitory concentration (IC50) at human TLR7 was determined as 1.4 nM; on human TLR8 (setting [1]), 0.29 nM; at human TLR9 (setting [2]), 7680 nM.
Take `Cc1c(-c2[nH]c3ccc(N4C[C@@H](C)N(C(=O)CCN5CC6(CCOC6)C5)C[C@@H]4C)nc3c2C(C)C)cn2ncnc2c1C` [Example 960]: the concentration for half-maximal inhibition (IC50) on human TLR7 amounted to 0.77 nM; at human TLR8 (setting [1]), 0.32 nM; at human TLR9 (setting [2]), 3170 nM.
The corresponding values for `Cc1c(-c2[nH]c3ccc(N4C[C@@H](C)N(C(=O)CCN5CCC6(COC6)C5)C[C@@H]4C)nc3c2C(C)C)cn2ncnc2c1C` [Example 961] are 0.35 nM, 0.8 nM and 8340 nM.
The corresponding values for `Cc1c(-c2[nH]c3ccc(N4C[C@@H](C)N(C(=O)CCN5CCC(F)(F)C5)C[C@@H]4C)nc3c2C(C)C)cn2ncnc2c1C` [Example 962] are 3.7 nM, 17 nM and over 50000 nM.
